Experimental data: patent publication US9133104B2 (Chroma Therapeutics Ltd., priority 2005, dated 2015)

Each compound was assayed against T1, histone deacetylase activity (HeLa nuclear extract) (assay: HDAC fluorescent activity assay (Biomol Fluor de Lys), HeLa nuclear extract). Conditions: Fluor de Lys substrate, IC50 range.
T1 construct: Histone deacetylase activity from crude nuclear extract derived from HeLa cells was used for screening
Type: biochemical
Procedure: The ability of compounds to inhibit histone deacetylase activities was measured using the commercially available HDAC fluorescent activity assay from Biomol. In brief, the Fluor de Lys™ substrate, a lysine with an epsilon-amino acetylation, is incubated with the source of histone deacetylase activity (HeLa nuclear extract) in the presence or absence of inhibitor. Deacetylation of the substrate sensitises the substrate to Fluor de Lys™ developer, which generates a fluorophore. Thus, incubation of the substrate with a source of HDAC activity results in an increase in signal that is diminished in the presence of an HDAC inhibitor.
Data are expressed as a percentage of the control, measured in the absence of inhibitor, with background signal being subtracted from all samples, as follows:— % activity=((S^i−B)/(S^o−B))×100 where S^i is the signal in the presence of substrate, enzyme and inhibitor, S^o is the signal in the presence of substrate, enzyme and the vehicle in which the inhibitor is dissolved, and B is the background signal measured in the absence of enzyme.
IC50 values were determined by non-linear regression analysis, after fitting the results of eight data points to the equation for sigmoidal dose response with variable slope (% activity against log concentration of compound), using Graphpad Prism software.
Histone deacetylase activity from crude nuclear extract derived from HeLa cells was used for screening. The preparation, purchased from 4C (Seneffe, Belgium), was prepared from HeLa cells harvested whilst in exponential growth phase. The nuclear extract is prepared according to Dignam JD1983 Nucl. Acid. Res. 11, 1475-1489, snap frozen in liquid nitrogen and stored at −80° C. The final buffer composition was 20 mM Hepes, 100 mM KCl, 0.2 mM EDTA, 0.5 mM DTT, 0.2 mM PMSF and 20% (v/v) glycerol.

| SMILES | IC50 [nM] |
| --- | --- |
| O=C(CCCCCCC(=O)Nc1ccc(CN[C@@H](C(=O)O)c2ccccc2)cc1)NO [Compound 84, (R)-[4-(7-Hydroxycarbamoyl-heptanoylamino)-benzylamino]-phenyl-acetic acid] | 101 to 1000 |
| O=C(CCCCCCC(=O)Nc1cccc(OCCCN[C@@H](Cc2ccccc2)C(=O)O)c1)NO [Compound 76, (S)-2-{3-[3-(7-Hydroxycarbamoyl-heptanoylamino)-phenoxy]-propylamino}-3-phenyl-propionic acid] | < 100 |
| CC(C)C[C@H](NCc1cccc(NC(=O)CCCCCCC(=O)NO)c1)C(=O)O [Compound 38, (S)-2-[3-(7-Hydroxycarbamoyl-heptanoylamino)-benzylamino]-4-methyl-pentanoic acid] | 101 to 1000 |
| O=C(CCCCCCC(=O)Nc1cccc(CNC(=O)N[C@H](C(=O)O)c2ccccc2)c1)NO [Compound 80, (S)-{3-[3-(7-Hydroxycarbamoyl-heptanoylamino)-benzyl]-ureido}-phenyl-acetic acid] | 101 to 1000 |
| O=C(CCCCCCC(=O)Nc1cccc(OCCCC(=O)N[C@H](C(=O)O)c2ccccc2)c1)NO [Compound 93, (S)-{4-[3-(7-Hydroxycarbamoyl-heptanoylamino)-phenoxy]-butyrylamino}-phenyl-acetic acid] | < 100 |
| O=C(CCCCCCC(=O)Nc1cccc(COC(=O)N[C@@H](Cc2ccccc2)C(=O)O)c1)NO [Compound 95, (S)-2-[3-(7-Hydroxycarbamoyl-heptanoylamino)-benzyloxycarbonylamino]3-phenyl-propionic acid] | 101 to 1000 |
| O=C(CCCCCCC(=O)Nc1cccc(OCCN[C@@H](Cc2ccccc2)C(=O)O)c1)NO [Compound 74, (S)-2-{2-[3-(7-Hydroxycarbamoyl-heptanoylamino)-phenoxy]-ethylamino}-3-phenyl-propionic acid] | 101 to 1000 |
| O=C(CCCCCCC(=O)Nc1cccc(CCN[C@H](C(=O)O)c2ccccc2)c1)NO [Compound 72, (S)-{2-[3-(7-Hydroxycarbamoyl-heptanoylamino)-phenyl]-ethylamino}-phenyl-acetic acid] | < 100 |

The remaining lines, values ahead:

| IC50 [nM] | SMILES |
| --- | --- |
| < 100 | C[C@H](NCc1ccc(CNCc2ccc3cc(C(=O)NO)sc3c2)cc1)C(=O)O [Compound 119, (S)-2-(4-{[(2-Hydroxycarbamoyl-benzo[b]thiophen-6-ylmethyl)-amino]-methyl}-benzylamino)-propionic acid] |
| < 100 | O=C(NO)c1cc2ccc(CNCc3ccc(CN[C@H](C(=O)O)C4CCCCC4)cc3)cc2s1 [Compound 117, (S)-Cyclohexyl-(4-{[(2-hydroxycarbamoyl-benzo[b]thiophen-6-ylmethyl)-amino]-methyl}-benzylamino)-acetic acid] |
| < 100 | CC(C)C[C@H](NCc1ccc(CNCc2ccc3cc(C(=O)NO)sc3c2)cc1)C(=O)O [Compound 123, (S)-2-(4-{[(2-Hydroxycarbamoyl-benzo[b]thiophen-6-ylmethyl)-amino]-methyl}-benzylamino)-4-methyl-pentanoic acid] |
| < 100 | O=C(CCCCCCNC(=O)c1cc2cc(CCC(=O)N[C@@H](Cc3ccccc3)C(=O)O)ccc2[nH]1)NO [Compound 101, (S)-2-{3-[2-(6-Hydroxycarbamoyl-hexylcarbamoyl)-1H-indol-5-yl]-propionylamino}-3-phenyl-propionic acid] |
| < 100 | O=C(NO)c1cc2ccc(CNCc3ccc(CN[C@@H](Cc4ccccc4)C(=O)O)cc3)cc2s1 [Compound 105, (S)-2-(4-{[(2-Hydroxycarbamoyl-benzo[b]thiophen-6-ylmethyl)-amino]-methyl}-benzylamino)-3-phenyl-propionic] |
| 101 to 1000 | CC(C)C[C@H](NC(=O)[C@@H]1Cc2ccc(NC(=O)CCCCCCC(=O)NO)cc2CN1)C(=O)O [Compound 97, (S)-2-{[(S)-7-(7-Hydroxycarbamoyl-heptanoylamino)-1,2,3,4-tetrahydro-isoquinoline-3-carbonyl]-amino}-4-methyl-pentanoic acid] |
